The test system of experiment [1] is TNFα production in human whole blood. The experiment is described as follows: Inhibition of the production of TNFα in vitro in human whole blood (Test Examples 1 and 1′). The class given is cell-based. The note with it: Table 7′, lipopolysaccharide 10 μg/ml, 6 hours at 37° C., plasma TNFα by ELISA, least squares, read-out: Inhibitory Effect on TNFα Production (in vitro) IC50. The protocol: (§1) Inhibition of the Production of the Cytokines IL-1β and TNFα in Vitro in Human Whole Blood
(§2) This test was performed according to the method of Hartman, et al. [D. A. Hartman, S. J. Ochalski and R. P. Carlson; The effects of anti-inflammatory and antiallergic drugs on cytokine release after stimulation of human whole blood by lipopolysaccharide and zymosan A: Inflamm. Res., 44, 269 (1995)].
(§3) Peripheral blood samples were collected in the presence of heparin from healthy adult volunteers. 1000 μl of whole blood were added to an Eppendorf tube to which 2 μl of a dimethyl sulfoxide solution of the test compound had been added in advance, after which 10 μl of lipopolysaccharide (E. coli 026: B6 origin, Difco) were added as a stimulant (final concentration of said lipopolysaccharide: 10 μg/ml). This was mixed well and then incubated for 6 hours at 37° C. in the presence of 5% CO2. At the end of the incubation, the mixture was cooled to 4° C. to stop the reaction, followed immediately by centrifuging for 5 minutes at 14,000 rpm to separate and collect the supernatant plasma. The IL-1β and TNFα produced and released into the plasma were measured using a commercially available enzyme immunoassay (ELISA) kit [Cayman (IL-1β) and Genzyme (TNFα)]. The procedure was also repeated in the absence of test compound. The inhibitory effect [IC50 (μM)] on the production of IL-1β and TNFα was determined from the amounts of the cytokines produced in the presence and absence of the test compound.
(§4) Inhibition of the Production of the Cytokines IL-1β and TNFα In Vitro in Human Whole Blood
as §3, with “O26:” for “026:”, “plasma” for “plasma.”, “kits” for “kit”, “determined by the method of least squares” for “determined”
A general note: In an ELISA, binding on a coated surface is turned into a signal by an enzyme label.

Experiment [2] has as its system IL-1β production in human whole blood. The experiment is described as follows: Inhibition of the production of IL-1β in vitro in human whole blood (Test Examples 1 and 1′). The note with it: Table 8′, lipopolysaccharide 10 μg/ml, 6 hours at 37° C., plasma IL-1β by ELISA, least squares, read-out: Inhibitory Effect on IL-1β Production (in vitro) IC50. Type of experiment: cell-based. The protocol:
as §1, §2, §3, §4
as §3, with “O26:” for “026:”, “plasma” for “plasma.”, “kits” for “kit”, “determined by the method of least squares” for “determined”

Experiment [3] deals with TNFα production. As to the kind of experiment: Inhibition of the production of TNFα in vivo (Test Examples 2 and 2′). The note with it: Table 9′; Balb/c mice, oral administration 30 minutes before intravenous lipopolysaccharide, plasma TNFα 1 hour after LPS. The protocol: This test was performed according to the method of Ochalski, et al. [S. J. Ochalski, D. A. Hartman, M. T. Belfast, T. L. Walter, K. B. Glaser and R. P. Carlson; Inhibition of endotoxin-induced hypothermia and serum TNF-α levels in CD-1 mice by various pharmacological agents: Agents Actions 39, C52–C54 (1993)].
The production of TNFα was induced in mice by the intravenous injection of lipopolysaccharide (E. coli O26: B6 origin, Difco) which was prepared to a concentration of 0.045 mg/ml using physiological saline. The saline preparation of lipopolysaccharide was administered at the rate of 10 ml/l kg of body weight into the caudal vein of Balb/c mice (males, age 5–7 weeks, body weight: approx. 22 g, Japan Charles River) which had been fasted overnight starting on the day before the experiment. One hour after administration, the mice were laparotomized under ether anaesthesia and blood was collected from the abdominal vena cava. Blood collection was performed using a 1 ml volume disposable syringe equipped with a 23G needle which had been moistened with heparin on the inside wall. Following blood collection, the blood was immediately transferred to a 1.5 ml volume Eppendorf tube and centrifuged at 4° C. and 14,000 rpm to separate the plasma. This plasma was then stored at −20° C. until measurement of TNFα. The measurement of the amount of TNFα was performed with a commercially available enzyme immunoassay (ELISA) kit (Mouse TNFα ELISA KIT, Genzyme).
To determine the inhibitory activity of the test compounds, each test compound was suspended in a 0.5% tragacanth solution and then administered orally to the Balb/c mice at the rate of 10 ml/1 kg of body weight 30 minutes before injection of lipopolysaccharide. The level of TNFα production was then determined as described above. In the control group, 0.5% tragacanth solution was administered at the rate of 10 ml/1 kg of body weight to the test mice instead of the solutions of the test compounds. A minimum of 3 dose levels of the test compound was administered to groups of 5 test mice for each test compound. The inhibitory rate relative to the control group was calculated for each dose level. From the inhibitory rates and the dosages, ID50 values were calculated by the least squares method.
The production of TNFα was induced in mice by the intravenous injection of lipopolysaccharide (E. coli O26: B6 origin, Difco) which was prepared to a concentration of 0.045 mg/ml using physiological saline. […]
To determine the inhibitory activity of the test compounds, each test compound was suspended in a 0.5% tragacanth solution and then administered orally to the Balb/c mice at the rate of 10 ml/1 kg of body weight 30 minutes before injection of lipopolysaccharide. The level of TNFα production was then determined as described above. […]

Experiment [4] has as its system adjuvant-induced arthritis. As to the kind of experiment: Activity in preventing the development of adjuvant-induced arthritis in vivo (Test Examples 4 and 4′). Conditions: Table 10′; Lewis rat, oral once a day from day 0 to day 20, inhibition of swelling of injected foot on day 21. The protocol: The test was performed according to the method described by Winder et al. (Arthritis Rheum., 12, 472–482, 1969). Heat-killed dried Mycobacterium butyricum (Difco Laboratories, Lot 679123) was ground on an agate mortar, and was then suspended in dry-sterilised liquid paraffin (first grade, Wako Pure Chemical Industries, Ltd.) to make a 2 ml suspension. The resulting suspension was then sonicated and used as an adjuvant. Arthritis was induced by the intradermal injection of the adjuvant (100 μg of heat killed dried bacterium/0.05 ml of paraffin/paw) into the heel of the right hind paw of a Lewis rat (male, age 8 weeks, Japan Charles River). […] The volumes of the swollen feet (adjuvant-injected right hind foot volume—non-injected left hind foot volume) were calculated. The percent inhibition of swelling of the injected foot of the treated animals as compared to that of the control animals on day 21 was calculated as follows. […] ID50 values were calculated using this curve. […] […]

For the compound `CC1=CC2C=C(c3c[nH]c(-c4ccc(F)cc4)c3-c3ccncc3)CCN2C1` (stereo in doubt) [Example 31′, 2-(4-Fluorophenyl)-4-[(8aS)-2-methyl-3,5,6,8a-tetrahydroindolizin-7-yl]-3-(pyridin-4-yl)-1H-pyrrole], the IC50 in experiment [1] came to 2.4 nM; in experiment [2], 4.6 nM. In addition, the “Inhibitory Effect on TNFα Production (in vivo) IC50” value in experiment [3] was 0.36 mg/kg.
With `Fc1ccc(-c2[nH]cc(C3=C[C@@H]4C[C@H](c5ccccc5)CN4CC3)c2-c2ccncc2)cc1` [Example 12′, 2-(4-Fluorophenyl)-4-[(2R,8aS)-2-phenyl-1,2,3,5,6,8a-hexahydroindolizin-7-yl]-3-(pyridin-4-yl)-1H-pyrrole], the IC50 in experiment [1] was 2.5 nM; in experiment [2], 2.6 nM. For the same compound, the “Activity in Preventing the Development of Adjuvant-Induced Arthritis in vivo IC50” value in experiment [4] was 2.1 mg/kg.
On to `CC[C@H]1C[C@H]2C=C(c3c[nH]c(-c4ccc(F)cc4)c3-c3ccncc3)CCN2C1` [Example 32′, 4-[(2S,8aS)-2-Ethyl-1,2,3,5,6,8a-hexahydroindolizin-7-yl)-2-(4-fluorophenyl)-3-(pyridin-4-yl)-1H-pyrrole], for which the IC50 in experiment [1] turned out to be 4.5 nM; in experiment [2], 2.7 nM. In experiment [3], the “Inhibitory Effect on TNFα Production (in vivo) IC50” value came out at 0.61 mg/kg.
For `CCC[C@H]1C[C@H]2C=C(c3c[nH]c(-c4ccc(F)cc4)c3-c3ccncc3)CCN2C1` [Example 43′, 2-(4-Fluorophenyl)-4-[(2S,8aS)-2-propyl-1,2,3,5,6,8a-hexahydroindolizin-7-yl]-3-(pyridin-4-yl)-1H-pyrrole] the same measures were 6 nM, 8 nM and 0.40 mg/kg.

As a reminder, the IC50 is the concentration needed to halve the response being measured.

For the origin of these results see patent publication US7122666B2, “Heteroaryl-substituted pyrrole derivatives, their preparation and their therapeutic uses” (Sankyo Company, Limited, priority 1999, dated 2006).
